# Earlier results as cited in patent US20070093969A1, “Molecular nephrotoxicology modeling” (priority 2002, published 2007).
# How the values were obtained:
# mice = conditions: single dose; cited from earlier work
# rabbits = conditions: rabbit, in vivo; cited from earlier work
# [1] = system: angiotensin converting enzyme (ACE); conditions: 20, 25, and 30 days post-treatment; cited from earlier work
# rats = conditions: rat, in vivo; cited from earlier work
# human population = conditions: in vivo; cited from earlier work
# patients = conditions: four HIV-positive patients; cited from earlier work
smiles,measurement,setting,value
"COc1cccc2c1C(=O)c1c(O)c3c(c(O)c1C2=O)C[C@@](O)(C(=O)CO)C[C@@H]3O[C@H]1C[C@H](N)[C@H](O)[C@H](C)O1 [adriamycin, Adriamycin]",renal signs,mice,combined glomerular albuminuria and immunoglublinuria
same,nephrotoxicity,rabbits,signs of nephrotoxicity at relatively low doses
same,serum ACE levels,[1],significantly elevated
"[Li] [lithium, Lithium]",urine output,rats,marked polyuria
same,patients who proceeded to end-stage renal disease,human population,seven
same,patients with nephrogenic diabetes insipidus (NDI),human population,~90%
same,patients with nephrotic proteinuria,human population,Approximately one fourth
"Nc1ccc(S(=O)(=O)Nc2ncccn2)cc1 [sulfadiazine, Sulfadiazine]","patients who developed oliguria, abdominal pain, renal failure",patients,All four
